Measured values: US20040029886A1, “Dihalopropene compounds, processes for their preparation, compositions comprising them and their use as pesticides” (priority 2001, published 2004)

Key:
Type in all cases: in vivo
Parameters in all cases: key: compounds are considered to be active when, at a concentration of 500 ppm or less, their action on the harmful organisms is 50% or more
[1] = test system: larvae of the root gall nematode (Meloidogyne incognita); test: Example F: root gall nematode, contact action (part A) and soil drench action on cucumber (part B); settings: 500 ppm or less; part A 6 days exposure, part B root galls on cucumber after 2 weeks (Abbott's formula)
Description: (§1) In Examples A to L below, compounds are considered to be active when, at a concentration of 500 ppm or less, their action on the harmful organisms is 50% or more.
Part A of the examination (contact action): in a glass vessel, an aqueous solution of the formulated preparation to be examined was added to about 5000 freshly hatched active (mobile) larvae (2nd development stage) of the root gall nematode (Meloidogyne incognita) (final volume 20 ml). After 6 days of permanent exposure of the nematode larvae, the percentage of the individual larvae immobilized by the action of the preparation was determined in comparison to the untreated controls (nematicidal contact action in percent).
Part B of the examination (soil drench action): to this end, the entire solution from part A of the examination (active compound and pre-treated nematode larvae) was poured into a pot, filled with 60 ml of soil, into which three 9-day-old cucumber plants (Cucumis sativus) had been planted. This drench application reduced the active compound content based on the soil volume to one third of the active compound content in part A of the examination. After 2 weeks in a greenhouse at about 26° C. (watering: twice a day), the root balls of the cucumber plants were carefully washed out of the soil mixture contaminated with nematodes. The number of root galls per plant was counted and compared to the infection of untreated control plants. The reduction of the infection in percent as a criterion for the assessment of the activity was calculated using Abbott's formula (nematicidal soil drench action). The following examples were active: Nos. 6, 7, 29, 32, 34, 44, 356.

[2] = test system: eggs of the American tobacco budworm (Heliothis virescens); test: Example C: eggs of American tobacco budworm, Petri dish with culture medium; settings: 500 ppm or less; eggs dipped 5 seconds, 200 μl on culture medium; after 6 days
Description: as §1
A Petri dish whose bottom was covered with filter paper and which contained about 5 ml of culture medium was prepared. Pieces of filter paper with about 30, one-day-old eggs of the American tobacco budworm (Heliothis virescens) were dipped for 5 seconds into an aqueous solution of the formulated preparation to be examined and subsequently placed in a Petri dish. A further 200 μl of the aqueous solution were spread over the culture medium. The Petri dish was closed and then stored at about 25° C. in a climatized chamber. After 6 days of storage, the effect of the preparation on the eggs and any larvae which may have hatched from these (mortality) was determined. The following examples were active: Nos. 6, 27, 28, 29, 31, 35, 39, 43, 45, 59, 97, 226, 227, 228, 229, 351, 356, 357, 592, 593, 595, 949, 1001, 1126, 1129, 1132.

[3] = test system: eggs of the corn rootworm (Diabrotica undecimpunctata); test: Example E: eggs of corn rootworm, Petri dish with maize corn; settings: 500 ppm or less, after 6 days
Description: as §1
A Petri dish, half of whose bottom was covered with filter paper and which contained a germinated maize corn on a moist cotton pad, was prepared. About 50, 4-5 day-old eggs of the corn rootworm (Diabrotica undecimpunctata) were transferred onto the filter paper. Three drops of 200 μl of an aqueous solution of the formulated preparation to be examined were pipetted onto the eggs, and the rest was pipetted onto the maize corn. The Petri dish was closed and then stored at about 25° C. in a climatized chamber. After 6 days of storage, the effect of the preparation on the eggs and any larvae which may have hatched from these (mortality) was determined. The following examples were active: No. 7.

[4] = test system: L2 larvae of the Egyptian cotton leaf worm (Spodoptera littoralis); test: Example D: L2 larvae of Egyptian cotton leaf worm, Petri dish with culture medium; settings: 500 ppm or less, after 6 days
Description: as §1
A Petri dish whose bottom was covered with filter paper and which contained about 5 ml of culture medium was prepared. Five L2 larvae of the Egyptian cotton leaf worm (Spodoptera littoralis) were counted into small beakers. 200 μl of an aqueous solution of the formulated preparation to be examined were pipetted into the beaker. The treated larvae were then poured into the Petri dish, and a further 200 μl of the aqueous solution were distributed over the culture medium. The Petri dish was closed and then stored at about 25° C. in a climatized chamber. After 6 days of storage, the effect of the preparation on the larvae (mortality) was determined. The following examples were active: Nos. 27, 28, 29, 39, 43, 45, 59.

[5] = test system: L2 larvae of the sugar beet armyworm (Spodoptera exigua); test: Example H: L2 larvae of sugar beet armyworm, Petri dish with culture medium; settings: 500 ppm or less, after 6 days
Description: as §1
A Petri dish whose bottom was covered with filter paper and which contained […] of culture medium was prepared. Five L2 larvae of the sugar beet armyworm (Spodoptera exigua) were counted into a small beaker. 200 μl of an aqueous solution of the formulated preparation to be examined were pipetted into the beaker. The treated larvae were then poured into the Petri dish and a further 200 μl of the aqueous solution were distributed over the culture medium. The Petri dish was closed and then stored at 25° C. in a climatized chamber. After 6 days of storage, the effect of the preparation on the larvae (mortality) was determined. The following examples were active: Nos. 31, 97, 226, 227, 228, 229, 351, 356, 357, 592, 593, 595, 949, 1001, 1126, 1129, 1132.

[6] = test system: black bean aphids (Aphis fabae); test: Example B: black bean aphids on field bean, dip treatment; settings: 500 ppm or less; plants and aphids dipped 5 seconds; after 3 and 6 days
Text: as §1
Germinated field bean seeds (Vicia faba) with radicles were transferred into brown glass bottles filled with tap water and subsequently populated with approximately 100 black bean aphids (Aphis fabae). Plants and aphids were then dipped for 5 seconds into an aqueous solution of the formulated preparation to be examined. After the solution had run off, plants and animals were stored in an acclimatized chamber (16 hours of light/day, 25° C., 40-60% relative atmospheric humidity). After 3 and 6 days of storage, the effect of the preparation on the aphids (mortality) was determined. The following examples were active: Nos. 33, 36, 357, 1126.

[7] = test system: spider mites (Tetranychus urticae); test: Example A: spider mites on bean leaf, dip treatment; settings: 500 ppm or less; leaf and mites dipped 5 seconds; after 6 days
Text: as §1
Cut stems of bean plants (Phaseolus vulgaris) carrying one leaf were transferred into brown glass bottles filled with tap water and subsequently populated with approximately 100 spider mites (Tetranychus urticae). The plant leaf and the spider mites were then dipped for 5 seconds into an aqueous solution of the formulated preparation to be examined. After the solution had run off, plants and animals were stored in a climatized chamber (16 hours of light/day, 25° C., 40-60% relative atmospheric humidity). After 6 days of storage, the effect of the preparation on all stages of the spider mites was determined. The following examples were active: Nos. 43, 45, 97, 1132.

[8] = test system: L2 larvae of the sugar beet armyworm (Spodoptera exigua); test: Example I: sugar beet armyworm L2 larvae on sprayed cotton leaves; settings: 500 ppm or less, after 4 days
Description: as §1
Cotton plants were sprayed with an aqueous solution of the formulated preparation to be examined. After drying, leaves were cut off, placed into a Petri dish and populated with 5 L2 larvae of the sugar beet armyworm (Spodoptera exigua). After 4 days of storage at about 23° C., the effect of the preparation on the larvae (mortality) was determined. The following examples were active: Nos. 27, 28, 45, 59.

[9] = test system: larvae of the diamondback moth (Plutella xylostella); test: Example L: diamondback moth larvae on sprayed cabbage leaf; settings: 500 ppm or less, after 4 days
Description: as §1
A cabbage leaf was sprayed with an aqueous solution of the formulated preparation to be examined. After drying, the treated leaf was populated with larvae of the diamondback moth (Plutella xylostella). After 4 days of storage at about 25° C., the effect of the preparation on the larvae (mortality) was determined. The following examples were active: Nos. 27, 28, 45.

SMILES	nematicidal contact action / nematicidal soil drench action [1]	effect of the preparation on the eggs and any larvae hatched (mortality) [2]	effect of the preparation on the larvae (mortality) [5]	other results
CC(=O)c1cc(OCC=C(Cl)Cl)cc(Cl)c1OCCCc1ccc(Cl)cc1 [compound 6]	active	active		
COC(=O)c1cc(OCC=C(Cl)Cl)cc(Cl)c1OCCCc1ccc(Cl)cc1 [compound 7]	active			effect of the preparation on the eggs and any larvae hatched (mortality) [3]: active
CON=C(C)c1cc(OCC=C(Cl)Cl)cc(Cl)c1OCCCOc1ccc(C(F)(F)F)cn1 [compound 29]	active	active		effect of the preparation on the larvae (mortality) [4]: active
NC(=S)c1cc(OCC=C(Cl)Cl)cc(Cl)c1OCCCOc1ccc(C(F)(F)F)cn1 [compound 31]		active	active	
CC(CO)NC(=O)c1cc(OCC=C(Cl)Cl)cc(Cl)c1OCCCOc1ccc(C(F)(F)F)cn1 (stereo not drawn) [compound 32]	active			
CCNC(=O)c1cc(OCC=C(Cl)Cl)cc(Cl)c1OCCCOc1ccc(C(F)(F)F)cn1 [compound 34]	active			
CON(C)C(=O)c1cc(OCC=C(Cl)Cl)cc(Cl)c1OCCCOc1ccc(C(F)(F)F)cn1 [compound 35]		active		
CN(C)C(=O)c1cc(OCC=C(Cl)Cl)cc(Cl)c1OCCCOc1ccc(C(F)(F)F)cn1 [compound 36]				effect of the preparation on the aphids (mortality) [6]: active
CC(=O)c1cc(OCC=C(Cl)Cl)cc(Cl)c1OCCCCOc1ncc(Cl)cc1Cl [compound 43]		active		effect of the preparation on all stages of the spider mites [7]: active; effect of the preparation on the larvae (mortality) [4]: active
CC(=NO)c1cc(OCC=C(Cl)Cl)cc(Cl)c1OCCCCOc1ncc(Cl)cc1Cl [compound 44]	active			
CON=C(C)c1cc(OCC=C(Cl)Cl)cc(Cl)c1OCCCCOc1ncc(Cl)cc1Cl [compound 45]		active		effect of the preparation on all stages of the spider mites [7]: active; effect of the preparation on the larvae (mortality) [4]: active; effect of the preparation on the larvae (mortality) [8]: active; effect of the preparation on the larvae (mortality) [9]: active
OCC#Cc1cc(OCC=C(Cl)Cl)cc(Cl)c1OCCCOc1ccc(C(F)(F)F)cn1 [compound 227]		active	active	
COCC#Cc1cc(OCC=C(Cl)Cl)cc(Cl)c1OCCCOc1ccc(C(F)(F)F)cn1 [compound 228]		active	active	
C#Cc1cc(OCC=C(Cl)Cl)cc(Cl)c1OCCCOc1ccc(C(F)(F)F)cn1 [compound 229]		active	active	
CSCc1noc(-c2cc(OCC=C(Cl)Cl)cc(Cl)c2OCCCOc2ccc(C(F)(F)F)cn2)n1 [compound 351]		active	active	
Cc1noc(-c2cc(OCC=C(Cl)Cl)cc(Cl)c2OCCCOc2ccc(C(F)(F)F)cn2)n1 [compound 357]		active	active	effect of the preparation on the aphids (mortality) [6]: active
CCOC(=O)C=Cc1cc(OCC=C(Cl)Cl)cc(Cl)c1OCCCOc1ccc(C(F)(F)F)cn1 [compound 592]		active	active	
COC(=O)C=Cc1cc(OCC=C(Cl)Cl)cc(Cl)c1OCCCOc1ccc(C(F)(F)F)cn1 [compound 593]		active	active	
C=Cc1cc(OCC=C(Cl)Cl)cc(Cl)c1OCCCOc1ccc(C(F)(F)F)cn1 [compound 595]		active	active	
